Data taken from patent publication US7723070B2, “Overexpression of aminoacyl-tRNA synthetases for efficient production of engineered proteins containing amino acid analogues” (California Institute of Technology, priority 2000, dated 2010).
Like-named read-outs stand apart in the source and are kept apart here.

Test system: CAG18491/pQE15-MRS/pREP4
Assay type: cell-based, E. coli
Details: for level of protein synthesis in modified host over conventional host (Western blot, laser densitometry): 5-ml cultures, versus CAG18491/pQE15/pREP4; for yield of mDHFR from large-scale cultures: preliminary results
Procedure: Similarly, a bacterial host capable of overexpressing MetRS was produced by transforming E. coli strains CAG18491 (Novagen, Inc., Madison, Wis., USA), a methionine auxotroph, with repressor plasmid pREP4 and expression plasmid pQE15-MRS, as described for the B834(DE3) strain. A control bacterial host, which produces only mDHFR and normal cellular levels of MetRS, was prepared by transforming CAG18491 with pREP4 and pQE15.
Methionine analogues were synthesized via alkylation of diethylacetamidomalonate, as previously described (As described in Example I, infra; J. C. M. van Hest, D. A. Tirrell, FEBS Lett. 1998, 428, 68-70). Cultures of B834(DE3)/pQE15-MRS/pREP4 or B834(DE3)/pQE15/pREP4 or CAG18491/pQE15-MRS/pREP4 or CAG18491/pQE15/pREP4 in M9AA media were grown to an optical density of 0.90, and the cells were sedimented by centrifugation. The M9AA medium was prepared by supplementing sterile M9 medium with […] of each of the amino acids, 1 mM MgSO4, 0.2 wt % glucose, 1 mg/ml thiamine chloride, and […] calcium chloride. The antibiotics ampicillin and kanamycin were added at concentrations of 200 mg/l and 35 mg/l, respectively.
Cells were washed three times with M9 salts and resuspended to an optical density of 0.90 in M9 test media containing 19 amino acids plus 1) neither methionine nor analogue (negative control); 2) methionine (60 mg/liter, positive control); or 3) an analogue of interest (60 mg/liter). To test the effect of increasing the level of supplementation of the analogues, a set of experiments was also conducted in which the medium was supplemented with 500 mg/liter of methionine or the amino acid analogue. Expression of mDHFR was induced by addition of 0.4 mM isopropyl β-D-thiogalactopyranoside (IPTG), and protein synthesis was monitored after 4.5 hours.
Buffers and media were prepared according to standard protocols (Ausubel, F. M.; Brent, R.; Kingston, R. E.; Moore, D. D.; Seidman, J. G.; Smith, J. A.; Struhl, K., Eds. Current Protocols in Molecular Biology; John Wiley and Sons: New York, 1998). The E. coli methionine auxotroph CAG18491 (λ^−, rph-1, metE3079.:Tn10) was transformed with plasmids pQE15 and pREP4 (Qiagen), to obtain the expression host CAG18491/pQE15/pREP4. […] Both bacterial expression hosts produce the target protein mDHFR under control of a bacteriophage T5 promoter; the modified host also expresses extra copies of the MetRS gene under control of the constitutive metG p1 promoter (Dardel, F.; Panvert, M.; Fayat, G. Mol. Gen. Genet. 1990, 223, 121.133).
M9AA medium (100 mL) supplemented with 1 mM MgSO4 0.2 wt % glucose, 1 mg/L thiamine chloride and the antibiotics ampicillin (200 mg/L) and kanamycin (35 mg/L) was inoculated with the appropriate E. coli strain (CAG18491/pQE15/pREP4 or CAG18491/pQE15-MRS/pREP4) and grown overnight at 37° C. This culture was used to inoculate 900 mL M9AA medium supplemented as described. The cells were grown to an optical density at 600 nm (OD600) of approximately 0.9 and a medium shift was performed. The cells were sedimented for 10 min at 3030 g at 4° C., the supernatant was removed, and the cell pellet was washed twice with 600 mL of M9 medium. Cells were resuspended in 1000 mL of the M9AA medium described above, without methionine, and supplemented with 20 mg/L of the L-isomer of either 1, 2, 3, or 9. Protein synthesis was induced by addition of isopropyl-β-D-thiogalactopyranoside (IPTG) to a final concentration of 0.4 mM. Samples (1 mL) were collected after 4.5 hours, the OD600 measured, and cells resuspended with distilled water to yield a normalized OD600 of 20.

CSCC[C@H](N)C(=O)O [Analogue 1, L-methionine, reference compound]
level of protein synthesis in modified host over conventional host (Western blot, laser densitometry): does not exhibit higher levels of protein synthesis

2-butynylglycine [Analogue 11]
mDHFR expression (SDS-PAGE) (60 mg/L): strong induction of mDHFR

C=CCCC(N)C(=O)O (racemic) [Analogue 2, DL-2-amino-5-hexenoic acid]
level of protein synthesis in modified host over conventional host (Western blot, laser densitometry): approximately 1.5 fold | yield of mDHFR from large-scale cultures: approximately 35 mg/L

C#CCCC(N)C(=O)O (racemic) [Analogue 3, DL-homopropargylglycine]
level of protein synthesis in modified host over conventional host (Western blot, laser densitometry): does not exhibit higher levels of protein synthesis

C=CCC(N)C(=O)O (centres unmarked) [Analogue 12, allylglycine]
mDHFR expression (SDS-PAGE) (500 mg/liter): able to produce the target protein

CCC[C@H](N)C(=O)O [Analogue 8, L-norvaline]
mDHFR expression (SDS-PAGE) (500 mg/liter): able to produce the target protein

CCCC[C@H](N)C(=O)O [Analogue 9, L-norleucine]
level of protein synthesis in modified host over conventional host (Western blot, laser densitometry): approximately 1.4 fold | yield of mDHFR from large-scale cultures: approximately 35 mg/L

C/C=C\CC(N)C(=O)O (racemic) [Analogue 4, cis-2-amino-4-hexenoic acid]
mDHFR expression (SDS-PAGE) (500 mg/liter): able to produce the target protein

CCCCCC(N)C(=O)O (racemic) [Analogue 7, DL-2-aminoheptanoic acid]
mDHFR expression (SDS-PAGE) (500 mg/liter): able to produce the target protein
